Assay results from PMC10233829 (ACS Omega, 2023).
Values after ≈ are worked out from the molar mass of the structure shown. Values joined by “and” are separate entries in the source; they are usually repeats but may differ in a detail not shown here. Equal values may be shown once. Read-outs that look alike come from different tables or passages of the source.

Tests used:
S. aureus DNA gyrase = S. aureus DNA gyrase (Staphylococcus aureus, UniProt P0A0K8+P20831); assay: biochemical; conditions: supercoiling of relaxed pBR322
Chain of S. aureus DNA gyrase (P0A0K8 whole entry): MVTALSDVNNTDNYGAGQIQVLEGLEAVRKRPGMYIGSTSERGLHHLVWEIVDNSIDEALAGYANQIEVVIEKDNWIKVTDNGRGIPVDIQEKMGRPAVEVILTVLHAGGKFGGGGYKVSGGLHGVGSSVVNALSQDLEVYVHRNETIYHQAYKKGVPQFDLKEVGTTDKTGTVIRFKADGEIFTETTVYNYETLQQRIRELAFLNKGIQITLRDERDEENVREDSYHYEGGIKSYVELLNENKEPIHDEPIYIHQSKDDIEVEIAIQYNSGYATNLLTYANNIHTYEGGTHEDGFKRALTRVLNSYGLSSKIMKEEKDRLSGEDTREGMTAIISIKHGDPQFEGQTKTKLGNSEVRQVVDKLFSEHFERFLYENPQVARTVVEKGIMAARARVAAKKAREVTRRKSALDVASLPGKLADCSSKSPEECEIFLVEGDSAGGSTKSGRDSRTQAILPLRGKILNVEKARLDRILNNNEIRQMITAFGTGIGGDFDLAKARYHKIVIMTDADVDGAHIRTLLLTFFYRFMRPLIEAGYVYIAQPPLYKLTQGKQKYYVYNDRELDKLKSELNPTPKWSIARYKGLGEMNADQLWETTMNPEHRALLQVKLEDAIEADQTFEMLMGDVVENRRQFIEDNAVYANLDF
Chain of S. aureus DNA gyrase (P20831 whole entry): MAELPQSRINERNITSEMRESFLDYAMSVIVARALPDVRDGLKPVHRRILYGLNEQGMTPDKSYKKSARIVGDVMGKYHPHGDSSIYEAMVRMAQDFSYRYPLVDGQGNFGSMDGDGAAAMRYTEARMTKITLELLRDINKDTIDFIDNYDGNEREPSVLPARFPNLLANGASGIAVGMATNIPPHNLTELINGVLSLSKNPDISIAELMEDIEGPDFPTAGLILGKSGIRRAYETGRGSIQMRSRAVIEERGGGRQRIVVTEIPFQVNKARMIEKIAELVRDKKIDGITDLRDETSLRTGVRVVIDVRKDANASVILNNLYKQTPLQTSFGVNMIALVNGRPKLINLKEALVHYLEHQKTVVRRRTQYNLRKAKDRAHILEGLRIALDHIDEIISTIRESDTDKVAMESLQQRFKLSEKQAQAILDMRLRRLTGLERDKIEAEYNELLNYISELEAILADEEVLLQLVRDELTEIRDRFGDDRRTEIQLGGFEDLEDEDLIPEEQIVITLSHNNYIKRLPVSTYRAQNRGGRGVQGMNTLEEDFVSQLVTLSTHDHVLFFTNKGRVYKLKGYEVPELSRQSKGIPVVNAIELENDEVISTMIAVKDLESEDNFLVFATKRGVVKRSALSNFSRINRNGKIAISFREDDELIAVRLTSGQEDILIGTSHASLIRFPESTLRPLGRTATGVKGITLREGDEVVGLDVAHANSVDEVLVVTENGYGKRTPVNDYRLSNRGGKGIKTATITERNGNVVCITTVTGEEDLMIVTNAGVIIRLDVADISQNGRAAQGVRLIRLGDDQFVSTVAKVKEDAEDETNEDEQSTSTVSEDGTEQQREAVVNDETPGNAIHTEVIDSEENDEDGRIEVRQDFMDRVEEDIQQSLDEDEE
Method: The enzymatic assay was carried using commercial topoisomerases type II as previously described by Alt et al.[55] with some modifications.
Briefly, 1 U of the enzyme (gyrase or topo IV, Inspiralis. Norwich, UK) isolated from S. aureus converts […] of relaxed pBR322 DNA to the supercoiled form (gyrase) or decatenates 200 ng of kinetoplast DNA (topo IV). […] The reactions were terminated by adding an equal volume of STEB buffer (40% sucrose, 100 mM Tris–HCl pH 8, 10 mM EDTA, and 0.5 mg/mL bromophenol blue), followed by extraction with 1 volume of chloroform/isoamyl alcohol (24:1). The samples were vortexed and centrifuged, and 20 μL of the aqueous phase of each sample was loaded onto a 1% agarose gel and left for 30 min prior to electrophoresis to allow diffusion of salt. […] Gels were stained with ethidium bromide and visualized under UV light in a transilluminator (ChemiDoc MP, Bio Rad).

[1] = target: T1, S. aureus topoisomerase IV (Staphylococcus aureus, UniProt P0C1S7+P0C1U9); assay: Topoisomerase IV decatenation assay; assay type: biochemical; conditions: decatenation of kinetoplast DNA; read-out: IC50 S. aureus topoisomerase IV (converted)
T1 construct: purchased Inspiralis, Norwich, UK
T1 sequence (P0C1U9 whole entry): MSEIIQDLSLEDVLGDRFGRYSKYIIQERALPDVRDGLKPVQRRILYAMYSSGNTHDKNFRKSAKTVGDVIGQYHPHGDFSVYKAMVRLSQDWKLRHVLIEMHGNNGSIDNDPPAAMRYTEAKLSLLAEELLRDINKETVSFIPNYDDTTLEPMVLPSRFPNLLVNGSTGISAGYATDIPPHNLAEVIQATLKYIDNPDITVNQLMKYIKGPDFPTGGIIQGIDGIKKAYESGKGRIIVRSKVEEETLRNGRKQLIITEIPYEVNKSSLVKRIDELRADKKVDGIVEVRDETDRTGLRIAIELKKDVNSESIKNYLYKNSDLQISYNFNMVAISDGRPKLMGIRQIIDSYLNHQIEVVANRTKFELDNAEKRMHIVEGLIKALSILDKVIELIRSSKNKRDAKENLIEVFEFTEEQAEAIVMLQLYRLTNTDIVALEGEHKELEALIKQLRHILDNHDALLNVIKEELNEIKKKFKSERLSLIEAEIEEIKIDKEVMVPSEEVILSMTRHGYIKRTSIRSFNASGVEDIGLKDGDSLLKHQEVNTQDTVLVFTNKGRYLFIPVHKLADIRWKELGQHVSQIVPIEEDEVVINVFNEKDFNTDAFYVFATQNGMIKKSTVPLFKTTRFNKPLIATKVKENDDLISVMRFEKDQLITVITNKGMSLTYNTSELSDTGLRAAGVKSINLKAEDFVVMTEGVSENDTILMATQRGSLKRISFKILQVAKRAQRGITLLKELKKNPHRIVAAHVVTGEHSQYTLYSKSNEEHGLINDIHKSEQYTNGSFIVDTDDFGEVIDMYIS
T1 sequence (P0C1S7 whole entry): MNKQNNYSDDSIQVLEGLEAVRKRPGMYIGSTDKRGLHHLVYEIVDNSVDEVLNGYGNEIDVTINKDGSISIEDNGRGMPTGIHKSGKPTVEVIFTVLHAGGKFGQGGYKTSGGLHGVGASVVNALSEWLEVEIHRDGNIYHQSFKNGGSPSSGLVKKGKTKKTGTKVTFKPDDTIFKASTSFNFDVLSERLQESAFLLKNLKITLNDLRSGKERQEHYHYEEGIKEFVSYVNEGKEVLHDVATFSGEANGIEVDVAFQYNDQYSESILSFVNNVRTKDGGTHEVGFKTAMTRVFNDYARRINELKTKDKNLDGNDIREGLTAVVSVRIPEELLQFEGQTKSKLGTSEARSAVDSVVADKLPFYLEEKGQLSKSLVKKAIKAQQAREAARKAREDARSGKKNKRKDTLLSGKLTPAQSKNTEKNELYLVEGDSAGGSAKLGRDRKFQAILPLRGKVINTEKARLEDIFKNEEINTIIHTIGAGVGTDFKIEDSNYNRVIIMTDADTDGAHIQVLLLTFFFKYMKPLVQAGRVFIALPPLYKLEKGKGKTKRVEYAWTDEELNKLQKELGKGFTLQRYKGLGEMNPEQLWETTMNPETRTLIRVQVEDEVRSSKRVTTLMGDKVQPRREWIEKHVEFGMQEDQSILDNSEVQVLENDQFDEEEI
Method: Briefly, 1 U of the enzyme (gyrase or topo IV, Inspiralis. Norwich, UK) isolated from S. aureus converts 0.5 mg of relaxed pBR322 DNA to the supercoiled form (gyrase) or decatenates 200 ng of kinetoplast DNA (topo IV). […] The reactions were terminated by adding an equal volume of STEB buffer (40% sucrose, 100 mM Tris–HCl pH 8, 10 mM EDTA, and 0.5 mg/mL bromophenol blue), followed by extraction with 1 volume of chloroform/isoamyl alcohol (24:1). The samples were vortexed and centrifuged, and 20 μL of the aqueous phase of each sample was loaded onto a 1% agarose gel and left for 30 min prior to electrophoresis to allow diffusion of salt. […] Gels were stained with ethidium bromide and visualized under UV light in a transilluminator (ChemiDoc MP, Bio Rad).

[2] = system: Staphylococci (standard strains); assay: MIC, standard Gram-positive strains as a panel; assay type: cell-based, S. aureus, S. epidermidis; conditions: for MIC: read-out: MIC toward standard Staphylococci (range over strains)
[3] = system: P. aeruginosa ATCC 15442 and E. coli ATCC 25922; assay: MIC, standard Gram-negative rods as a panel; assay type: cell-based; conditions: P. aeruginosa ATCC 15442, E. coli ATCC 25922; for MIC: read-out: MIC against standard Gram-negative rods (range over strains)
M. tuberculosis Spec 210 = assay: microbe, parasite or virus in culture; assay type: cell-based, Mycobacterium tuberculosis
[4] = Trypan blue exclusion assay; assay type: cell-based, human; conditions: human; HaCaT, 72 h, compound at IC50
Text: (§1) To monitor cell proliferation in response to long-term conjugate treatment, the trypan-blue exclusion assay was further performed. […] Thus, they exerted a cytostatic effect on them, suppressing their growth and proliferation. […]. […] […].
(§2) Figure 9 Trypan blue assay. The effect of compounds 3, 15, and 21 on cell number in PC3 and HaCaT cells. […] Data are expressed as the mean ± SD. ***p ≤ 0.001, **p ≤ 0.002, and *p ≤ 0.01, as compared to the control.
(§3) Figure 10 Trypan blue assay. The effect of compounds 3, 15, and 21 on viability in PC3 and HaCaT cells. […] Data are expressed as the mean ± SD. ***p ≤ 0.001, **p ≤ 0.01, and *p ≤ 0.05, as compared to the control.

HaCaT cells [5] = assay: Trypan blue exclusion assay; assay type: cell-based, human; conditions: for Cell number (% of control) / Cell number x 10^6: 72 h, compound at IC50; for impact on the number of live human keratinocytes: compounds at their IC50 for PC3 cells (2.02, 15.7, 4.8 μM)
Text: as §1, §2, §3

PC3 cells [6] = assay: Trypan blue exclusion assay; assay type: cell-based, human; conditions: for Cell number (% of control) / Cell number x 10^6 / Viability (%): PC3, 72 h, compound at IC50
Text: as §1, §2, §3

HaCaT cells [7] = assay: Annexin V-FITC/PI binding assay, flow cytometry; assay type: cell-based, human; conditions: 72 h, IC50 concentration; for Dead cells / Early apoptosis / Late apoptosis / Live cells: HaCaT
Method: (§4) The PC3 and HaCaT cells were cultured and harvested under the conditions mentioned in the Cell Culture section and seeded in 12-well plates (1 × 10^5 cells per well). […] The apoptotic effect was performed using the annexin V-FITC/propidium iodide (PI) apoptosis assay kit (Becton Dickinson, Pharmingen) according to the manufacturer’s instructions and analyzed by flow cytometry (Becton Dickinson). The cells which were annexin V-FITC-positive and PI-negative were identified as early apoptotic and both annexin V-FITC- and PI-positive as late apoptotic or necrotic. The experiment was repeated three times.

PC3 cells [8] = assay: Annexin V-FITC/PI binding assay, flow cytometry; assay type: cell-based, human; conditions: IC50 concentration; for PC3 cells in late apoptosis or necrosis: 72 h; for Dead cells / Early apoptosis / Late apoptosis / Live cells: PC3, 72 h
Method: as §4

[9] = system: IL-6 level in HaCaT cells; assay: Interleukin-6 ELISA; assay type: cell-based, human; conditions: IC50 concentration, 72 h
Method: (§5) The level of interleukin-6 (IL-6) in PC3 and HaCaT cell lines was measured by commercial human IL-6 ELISA kits Diaclon SAS (Besancon Cedex, France). […] The untreated cells were used as the control. The IL-6 level in a cell culture supernatant was measured using an enzyme-linked immunosorbent assay in accordance with the manufacturer’s instruction. The experiment was repeated three times.

IL-6 level in PC3 cells = assay: Interleukin-6 ELISA; assay type: cell-based, human; conditions: PC3, IC50 concentration, 72 h
Method: as §5

P. aeruginosa ATCC 15442 = assay: Bacterial growth curve assay (OD600, 18 h); assay type: cell-based, Pseudomonas aeruginosa; conditions: for dose that fully inhibited bacterial growth: P. aeruginosa ATCC 15442, 18 h; for exponential phase shifted to: P. aeruginosa
E. coli ATCC 25922 = assay: Bacterial growth curve assay (OD600, 18 h); assay type: cell-based, Escherichia coli; conditions: for lag phase elongated to: E. coli, 0.006 μg/mL
[10] = system: E. coli ATCC 25922 biofilm; assay: Biofilm eradication assay (crystal violet); assay type: cell-based, Escherichia coli; conditions: 4 MIC
Method: Three bacterial strains E. coli ATCC 25922, P. aeruginosa ATCC 15442, and S. aureus ATCC 6538 were used to assign biofilm eradication properties of compounds 5, 10, 11, and CP as the reference drug. To quantify the biomass of the bacteria biofilm, the crystal violet method was used with some modifications.[52] The bacteria were incubated to the mid-log phase, diluted to 103 cfu/mL in brain–heart infusion medium, and seeded in a 96-well plate. Bacterial biofilms were formed by overnight incubation at 37 °C with rotation at 140 rpm. After biofilm formation, all wells were washed with PBS to remove nonadherent bacteria cells. […] The biofilms with tested substances were incubated for 20 h at 37 °C with shaking at 140 rpm. The bacterial biofilm was stained with 0.1% (v/v) CV for 10 min. Afterward, the biofilm was rinsed with PBS and dried. To solubilize the adsorbed crystal violet, wells with stained biofilms were incubated in 30% acetic acid. To estimate the total biofilm biomass, optical density (OD) of the resulting solution was measured at 595 nm. Biofilm assays were repeated at least three times on different days, with two technical replicates assessed each time. A minimum eradication concentration (MBEC) was determined as the lowest concentration of compound, which could damage ≥50% of the formed biofilm structure.

[11] = standard Gram-positive strains of Table 1

| SMILES | IC50 (S. aureus DNA gyrase) [µM] | IC50 [1] [µM] | share of CP potency kept against standard Gram-negative rods [3] | MIC [3] [µg/mL] | viability at 72 h [4] [%] | Cell number (% of control) (HaCaT cells [5]) | Cell number x 10^6 (HaCaT cells [5]) | impact on the number of live human keratinocytes (HaCaT cells [5]) | Cell number (% of control) (PC3 cells [6]) | Cell number x 10^6 (PC3 cells [6]) | Viability (%) (PC3 cells [6]) | HaCaT cells in late apoptosis/necrosis (HaCaT cells [7]) | Dead cells (HaCaT cells [7]) [%] | Early apoptosis (HaCaT cells [7]) [%] | Late apoptosis (HaCaT cells [7]) [%] | Live cells (HaCaT cells [7]) [%] | PC3 cells in late apoptosis or necrosis (PC3 cells [8]) [%] | Dead cells (PC3 cells [8]) [%] | Early apoptosis (PC3 cells [8]) | Late apoptosis (PC3 cells [8]) [%] | other results |
| --- | --- | --- | --- | --- | --- | --- | --- | --- | --- | --- | --- | --- | --- | --- | --- | --- | --- | --- | --- | --- | --- |
| O=C(O)c1cn(C2CC2)c2cc(N3CCN(C(=O)C4CC4)CC3)c(F)cc2c1=O [Compound 2, 7-(4-Cyclopropanecarbonyl-piperazin-1-yl)-1-cyclopropyl-6-fluoro-4-oxo-1,4-dihydro-quinoline-3-carboxylic Acid] | 22.3 | 23.8 | 30–60% | 0.025 to 0.2 (≈ 0.0626 to 0.501 µM) | – | – | – | – | – | – | – | – | – | – | – | – | – | – | – | – | MIC [2]: 0.05 to 0.4 µg/mL (≈ 0.125 to 1 µM); fold more active than CP toward standard Staphylococci [2, 11]: 1.25–10 fold |
| O=C(O)c1cn(C2CC2)c2cc(N3CCN(C(=O)CCl)CC3)c(F)cc2c1=O [Compound 3, 7-[4-(2-Chloroacetyl)-piperazin-1-yl]-1-cyclopropyl-6-fluoro-4-oxo-1,4-dihydro-quinoline-3-carboxylic Acid] | 61.3 | 78.5 | – | ≤ 1 | 75 ± 2.23 | 12.15 % of control | 0.2 ± 0.01 x 10^6 | negligible impact | 1.97 % of control | 0.04 ± 0.01 x 10^6 | 52 ± 2.40 | 47.23% | 9.99 ± 1.17 | 10.07 ± 1.22 | 37.24 ± 2.27 | 42.70 ± 2.81 | 78.22 | 66.10 ± 6.31 | 1.51 ± 0.04% | 12.12 ± 2.18 | fold more effective than the reference tuberculostatics (M. tuberculosis Spec 210; M. tuberculosis Spec. 210): 8–32 fold; decrease of PC3 cell viability (PC3 cells [6]; 72 h, IC50 concentration): 48%; Live cells (PC3 cells [8]): 20.27 ± 0.45%; effect on IL-6 in human keratinocytes [9]: stimulated human keratinocytes to produce IL-6; decrease of IL-6 release as compared to the control (IL-6 level in PC3 cells): 3.5 times |
| O=C(O)c1cn(C2CC2)c2cc(N3CCN(C(=O)CCCCl)CC3)c(F)cc2c1=O [Compound 5, 7-[4-(4-Chlorobutyryl)-piperazin-1-yl]-1-cyclopropyl-6-fluoro-4-oxo-1,4-dihydro-quinoline-3-carboxylic Acid] | 7.34 | 6.19 | 30–60% | 0.025 to 0.2 (≈ 0.0574 to 0.459 µM) | – | – | – | – | – | – | – | – | – | – | – | – | – | – | – | – | dose that fully inhibited bacterial growth (P. aeruginosa ATCC 15442): ≥ 0.2 µg/mL; exponential phase shifted to (P. aeruginosa ATCC 15442; 0.03 μg/mL): 7 to 12 h; exponential phase shifted to (P. aeruginosa ATCC 15442; 0.05 μg/mL): 8 to 15 h; lag phase elongated to (E. coli ATCC 25922): 6 h; eradication of the biofilm formed by E. coli [10]: approx. 20% |
| O=C(O)c1cn(C2CC2)c2cc(N3CCN(C(=O)CCCBr)CC3)c(F)cc2c1=O [Compound 10, 7-[4-(4-Bromobutyryl)-piperazin-1-yl]-1-cyclopropyl-6-fluoro-4-oxo-1,4-dihydro-quinoline-3-carboxylic Acid] | 16.4 | 10.4 | 60% | 0.025 to 0.1 (≈ 0.052 to 0.208 µM) | – | – | – | – | – | – | – | – | – | – | – | – | – | – | – | – | dose that fully inhibited bacterial growth (P. aeruginosa ATCC 15442): ≥ 0.2 µg/mL; lag phase elongated to (E. coli ATCC 25922): 9 h |
| O=C(O)c1cn(C2CC2)c2cc(N3CCN(C(=O)CCCCBr)CC3)c(F)cc2c1=O [Compound 11, 7-[4-(5-Bromopentanoyl)-piperazin-1-yl]-1-cyclopropyl-6-fluoro-4-oxo-1,4-dihydro-quinoline-3-carboxylic Acid] | 16.2 | 12.1 | 60% | 0.025 to 0.1 (≈ 0.0506 to 0.202 µM) | – | – | – | – | – | – | – | – | – | – | – | – | – | – | – | – | dose that fully inhibited bacterial growth (P. aeruginosa ATCC 15442): ≥ 0.2 µg/mL; concentration that inhibited bacterial cell growth (E. coli ATCC 25922; E. coli ATCC 25922, 18 h): ≥ 0.025 µg/mL; eradication of the biofilm formed by E. coli [10]: approx. 20%; fold more active than CP toward standard Staphylococci [2, 11]: 1.25–2.5 fold; melting point: 225.7 to 226.2 °C |
| O=C(O)c1cn(C2CC2)c2cc(N3CCN(C(=O)CCC(F)(F)F)CC3)c(F)cc2c1=O [Compound 15, 7-[4-(4,4,4-Trifluorobutyryl)-piperazin-1-yl]-1-cyclopropyl-6-fluoro-4-oxo-1,4-dihydro-quinoline-3-carboxylic Acid] | – | – | – | – | 90 ± 3.04 | 48.38 % of control | 0.8 ± 0.10 x 10^6 | negligible impact | 12.04 % of control | 0.3 ± 0.08 x 10^6 | 82 ± 2.64 | did not indicate appreciable apoptosis-inducing action | 0.3 ± 0.01 | 11.63 ± 2.93 | 0.77 ± 0.05 | 87.32 ± 2.20 | 37.64 | 21.15 ± 3.29 | 1.15 ± 0.10% | 16.49 ± 2.65 | Live cells (PC3 cells [8]): 61.21 ± 2.06%; effect on IL-6 in human keratinocytes [9]: No significant pro- or anti-inflammatory properties; decrease of IL-6 release as compared to the control (IL-6 level in PC3 cells): 1.9 times; MIC [2, 11]: 0.2 µg/mL (≈ 0.439 µM) |
| O=C(O)c1cn(C2CC2)c2cc(N3CCN(CCCCCCCCCCC(=O)N4CCN(c5cc6c(cc5F)c(=O)c(C(=O)O)cn6C5CC5)CC4)CC3)c(F)cc2c1=O [Compound 21, CP–Undecanoyl–CP Dimer] | – | – | – | – | 94 ± 4.01 | 19.35 % of control | 0.3 ± 0.01 x 10^6 | negligible impact | 6.22 % of control | 0.2 ± 0.03 x 10^6 | 78 ± 1.50 | 34.95% | 14.24 ± 3.78 | 10.52 ± 1.07 | 20.71 ± 4.34 | 54.53 ± 3.34 | 69.29 | 52.91 ± 3.99 | 28.22 ± 0.98% and 28.22% | 16.28 ± 2.80 | fold more effective than the reference tuberculostatics (M. tuberculosis Spec 210): 8–32 fold; Live cells (PC3 cells [8]): 2.59 ± 0.20%; effect on IL-6 in human keratinocytes [9]: stimulated human keratinocytes to produce IL-6 |
